The values that follow come from patent US8633196B2, “Benzenesulfonamide compounds, method for synthesizing same, and use thereof in medicine as well as in cosmetics” (Galderma Research & Development, priority 2009, dated 2014).

Read-outs that look alike come from different tables or passages of the source. A value given as a limit tells only on which side of the number the result lay.

The target in experiment [1] is T1, TACE enzyme (Homo sapiens (Human), UniProt P78536). Briefly: Enzymatic assay for TACE inhibition (fluorescent substrate). It is filed as biochemical.
Target sequence in this assay (P78536 215-824 limits assumed): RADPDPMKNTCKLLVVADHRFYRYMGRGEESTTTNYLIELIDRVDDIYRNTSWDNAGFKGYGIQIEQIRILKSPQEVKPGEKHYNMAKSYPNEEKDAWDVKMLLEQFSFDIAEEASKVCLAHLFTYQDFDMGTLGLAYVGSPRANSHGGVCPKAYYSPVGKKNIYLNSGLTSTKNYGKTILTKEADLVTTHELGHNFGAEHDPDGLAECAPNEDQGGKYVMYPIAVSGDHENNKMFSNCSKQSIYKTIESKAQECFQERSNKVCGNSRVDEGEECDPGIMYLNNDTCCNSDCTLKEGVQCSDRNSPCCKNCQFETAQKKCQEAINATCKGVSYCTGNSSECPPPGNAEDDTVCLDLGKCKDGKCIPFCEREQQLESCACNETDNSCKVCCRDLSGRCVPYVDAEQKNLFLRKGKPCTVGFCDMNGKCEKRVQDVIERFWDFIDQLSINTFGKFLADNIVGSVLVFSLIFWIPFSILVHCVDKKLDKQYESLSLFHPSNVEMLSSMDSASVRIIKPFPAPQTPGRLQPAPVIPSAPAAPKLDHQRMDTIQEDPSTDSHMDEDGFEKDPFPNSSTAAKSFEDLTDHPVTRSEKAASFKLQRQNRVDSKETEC
A further experiment deals with MMP3 (Homo sapiens (Human), UniProt P08254). Briefly: Selectivity assay, MMP3. The format is biochemical.
Another experiment deals with MMP1 (Homo sapiens (Human), UniProt P03956). Briefly: Selectivity assay, MMP1. The format is biochemical.
The next experiment has as its target ADAM10 (Homo sapiens (Human), UniProt O14672). Nature of the experiment: Selectivity assay, ADAM10.
A further experiment addresses MMP9 (Homo sapiens (Human), UniProt P14780). Briefly: Selectivity assay, MMP9. The format is biochemical.
For another experiment, the target named is ADAM9 (Homo sapiens (Human), UniProt Q13443). Nature of the experiment: Selectivity assay, ADAM9. It is filed as biochemical.
Experiment [2] deals with T1, TACE enzyme. The note with it: WO 00/44709; page 251, table 10, example 61; cited from earlier work.
Target sequence in this assay (P78536 whole entry, looked up): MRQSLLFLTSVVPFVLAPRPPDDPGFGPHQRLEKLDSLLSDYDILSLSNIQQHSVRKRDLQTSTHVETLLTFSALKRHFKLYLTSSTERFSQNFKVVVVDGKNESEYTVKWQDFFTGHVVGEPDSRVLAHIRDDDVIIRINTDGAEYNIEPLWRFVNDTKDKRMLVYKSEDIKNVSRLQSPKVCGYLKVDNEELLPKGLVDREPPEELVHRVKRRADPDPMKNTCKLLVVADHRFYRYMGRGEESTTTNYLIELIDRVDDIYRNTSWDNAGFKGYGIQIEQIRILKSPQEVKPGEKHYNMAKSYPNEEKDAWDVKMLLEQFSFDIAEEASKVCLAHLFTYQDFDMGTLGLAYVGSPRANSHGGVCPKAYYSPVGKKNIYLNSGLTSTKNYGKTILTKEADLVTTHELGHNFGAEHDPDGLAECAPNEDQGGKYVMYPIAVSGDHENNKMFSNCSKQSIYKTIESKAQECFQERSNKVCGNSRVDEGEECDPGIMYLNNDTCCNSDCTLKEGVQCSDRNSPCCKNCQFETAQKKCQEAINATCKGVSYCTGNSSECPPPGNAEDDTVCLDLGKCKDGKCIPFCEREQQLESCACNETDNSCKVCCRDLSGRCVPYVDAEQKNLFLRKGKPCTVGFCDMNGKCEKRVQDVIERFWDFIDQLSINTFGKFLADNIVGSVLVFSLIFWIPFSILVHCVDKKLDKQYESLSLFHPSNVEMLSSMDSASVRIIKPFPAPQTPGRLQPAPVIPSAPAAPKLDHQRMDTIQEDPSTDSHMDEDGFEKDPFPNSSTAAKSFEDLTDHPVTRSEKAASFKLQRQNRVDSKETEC
The mark [3] stands for this setting: enzymatic assay, substrate 40 μM, read-out: IC50-TACE.
Where [4] appears, read: TACE column of selectivity table, read-out: IC50 (nM) TACE.

Chain of ADAM9 (Q13443 29-819, species assumed): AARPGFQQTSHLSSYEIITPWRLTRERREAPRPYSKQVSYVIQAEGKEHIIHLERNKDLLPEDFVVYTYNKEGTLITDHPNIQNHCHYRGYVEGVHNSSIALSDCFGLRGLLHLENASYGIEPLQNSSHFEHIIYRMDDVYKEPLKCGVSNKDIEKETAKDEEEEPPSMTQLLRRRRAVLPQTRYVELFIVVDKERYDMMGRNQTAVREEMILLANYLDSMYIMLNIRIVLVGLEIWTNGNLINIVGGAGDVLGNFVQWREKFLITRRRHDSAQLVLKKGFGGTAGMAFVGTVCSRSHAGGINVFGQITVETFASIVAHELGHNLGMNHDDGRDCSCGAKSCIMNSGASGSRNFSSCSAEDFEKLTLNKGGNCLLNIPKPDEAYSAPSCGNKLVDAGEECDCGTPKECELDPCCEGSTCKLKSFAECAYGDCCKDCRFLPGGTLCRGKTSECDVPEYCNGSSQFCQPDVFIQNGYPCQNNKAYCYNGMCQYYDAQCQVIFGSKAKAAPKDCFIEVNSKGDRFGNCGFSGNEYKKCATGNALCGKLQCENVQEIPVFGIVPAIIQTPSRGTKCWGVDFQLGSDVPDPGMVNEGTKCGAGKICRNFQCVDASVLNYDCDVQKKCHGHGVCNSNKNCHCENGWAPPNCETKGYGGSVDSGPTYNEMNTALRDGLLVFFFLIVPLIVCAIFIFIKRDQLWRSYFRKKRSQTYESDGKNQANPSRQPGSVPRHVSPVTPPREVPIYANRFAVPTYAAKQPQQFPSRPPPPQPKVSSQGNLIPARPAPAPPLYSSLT
Chain of ADAM10 (O14672 214-748, species assumed): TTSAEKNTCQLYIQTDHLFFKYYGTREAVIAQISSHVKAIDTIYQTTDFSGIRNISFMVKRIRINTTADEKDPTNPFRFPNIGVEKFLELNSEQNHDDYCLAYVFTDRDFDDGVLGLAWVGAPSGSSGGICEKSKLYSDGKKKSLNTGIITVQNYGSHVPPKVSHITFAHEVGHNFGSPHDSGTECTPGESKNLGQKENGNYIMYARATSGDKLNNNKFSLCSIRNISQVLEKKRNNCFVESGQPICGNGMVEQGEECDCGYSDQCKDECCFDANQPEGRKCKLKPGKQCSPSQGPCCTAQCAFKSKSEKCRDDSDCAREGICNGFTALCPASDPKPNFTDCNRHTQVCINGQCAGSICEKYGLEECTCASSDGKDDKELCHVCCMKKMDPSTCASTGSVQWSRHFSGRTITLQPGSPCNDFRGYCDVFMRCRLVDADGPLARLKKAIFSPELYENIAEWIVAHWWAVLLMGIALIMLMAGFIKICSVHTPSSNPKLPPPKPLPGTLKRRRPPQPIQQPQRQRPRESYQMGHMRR
Chain of MMP1 (P03956 100-469, species assumed): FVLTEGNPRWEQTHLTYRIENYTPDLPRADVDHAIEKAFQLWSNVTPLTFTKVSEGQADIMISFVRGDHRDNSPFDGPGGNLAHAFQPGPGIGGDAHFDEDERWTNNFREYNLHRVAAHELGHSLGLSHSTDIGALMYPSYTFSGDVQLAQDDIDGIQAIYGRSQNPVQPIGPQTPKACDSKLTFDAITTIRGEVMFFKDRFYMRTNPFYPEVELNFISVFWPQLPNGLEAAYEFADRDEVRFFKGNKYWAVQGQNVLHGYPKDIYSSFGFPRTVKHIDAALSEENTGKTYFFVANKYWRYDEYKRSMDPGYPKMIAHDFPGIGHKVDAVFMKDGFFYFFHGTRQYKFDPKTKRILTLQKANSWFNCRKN
Chain of MMP3 (P08254 100-477, species assumed): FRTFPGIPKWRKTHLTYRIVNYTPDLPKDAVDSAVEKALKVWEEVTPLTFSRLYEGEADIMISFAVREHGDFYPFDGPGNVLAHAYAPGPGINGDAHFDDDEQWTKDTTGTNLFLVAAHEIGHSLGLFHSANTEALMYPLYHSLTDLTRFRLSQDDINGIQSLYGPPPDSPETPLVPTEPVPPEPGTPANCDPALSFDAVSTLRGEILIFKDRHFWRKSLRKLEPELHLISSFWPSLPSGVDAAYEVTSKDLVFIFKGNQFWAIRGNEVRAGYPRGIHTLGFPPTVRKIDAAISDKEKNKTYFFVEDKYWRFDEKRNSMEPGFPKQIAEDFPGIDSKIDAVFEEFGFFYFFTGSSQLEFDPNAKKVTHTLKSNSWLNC
Chain of MMP9 (P14780 94-707, species assumed): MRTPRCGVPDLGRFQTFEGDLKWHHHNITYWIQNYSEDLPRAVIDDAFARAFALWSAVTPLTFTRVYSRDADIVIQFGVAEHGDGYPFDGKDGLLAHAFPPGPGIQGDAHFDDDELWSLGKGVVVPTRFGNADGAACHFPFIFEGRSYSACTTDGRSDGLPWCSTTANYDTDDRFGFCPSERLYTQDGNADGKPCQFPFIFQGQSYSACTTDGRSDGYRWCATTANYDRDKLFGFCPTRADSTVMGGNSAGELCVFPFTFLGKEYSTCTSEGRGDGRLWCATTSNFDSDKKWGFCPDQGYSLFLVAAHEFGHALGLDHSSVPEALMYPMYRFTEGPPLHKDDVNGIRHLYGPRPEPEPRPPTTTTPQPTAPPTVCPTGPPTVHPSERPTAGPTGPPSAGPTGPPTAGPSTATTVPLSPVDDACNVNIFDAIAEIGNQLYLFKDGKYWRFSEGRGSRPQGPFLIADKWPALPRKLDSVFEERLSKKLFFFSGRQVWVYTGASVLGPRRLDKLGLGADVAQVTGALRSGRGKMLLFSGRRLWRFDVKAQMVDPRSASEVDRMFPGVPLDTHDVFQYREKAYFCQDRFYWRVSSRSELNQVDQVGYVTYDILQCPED

With `CS(=O)(=O)N1CCN([C@@H](CNS(=O)(=O)c2ccc(OCc3cccc(C#N)c3)cc2)C(=O)NO)CC1` [Example 8, (S)-3-[4-(3-Cyanobenzyloxy)benzenesulfonylamino]-N-hydroxy-2-(4-methanesulfonylpiperazin-1-yl)propionamide], the “% TACE inhibition at 10 μM” value at TACE enzyme [1] came out at 100%. Moreover, the IC50 at TACE enzyme [1] (setting [3]) was determined as 127 nM.
For `Cc1cc(COc2ccc(S(=O)(=O)NC[C@@H](C(=O)NO)N3CCN(C(=O)C(C)C)CC3)cc2)c2ccccc2n1` [Example 23, (S)-N-hydroxy-2-(4-isobutyrylpiperazin-1-yl)-3-[4-(2-methylquinolin-4-ylmethoxy)-benzenesulfonylamino]propionamide], the IC50 on TACE enzyme [1] (setting [4]) amounted to 53 nM; at TACE enzyme [1] (setting [3]), 53 nM; at MMP3, 1060 nM; against MMP1, 2220 nM. Besides, the “% TACE inhibition at 10 μM” value on TACE enzyme [1] is on record as 97%.
On to `Cc1cc(COc2ccc(S(=O)(=O)NC[C@@H](C(=O)NO)N3CCN(Cc4ccc(C(F)(F)F)cc4)CC3)cc2)c2ccccc2n1` [Example 20, (S)-N-Hydroxy-3-[4-(2-methylquinolin-4-ylmethoxy)benzenesulfonylamino]-2-[4-(4-trifluoromethylbenzyl)piperazin-1-yl]propionamide], for which the IC50 is over 10000 nM against ADAM10; over 10000 nM on MMP9; 4780 nM against MMP3; 3940 nM against MMP1; over 10000 nM against ADAM9.
Consider `CC#CCOc1ccc(S(=O)(=O)NC[C@@H](C(=O)NO)N2CCN(S(C)(=O)=O)CC2)cc1` [Example 2, (S)-3-(4-but-2-ynyloxybenzenesulfonylamino)-N-hydroxy-2-(4-methanesulfonylpiperazin-1-yl)propionamide], for which the “% TACE inhibition at 10 μM” value at TACE enzyme [1] was determined as 100%. At TACE enzyme [1] (setting [3]), the IC50 worked out at 32 nM.
On to `Cc1cc(COc2ccc(S(=O)(=O)NC[C@@H](C(=O)NO)N3CCN(S(=O)(=O)C(C)C)CC3)cc2)c2ccccc2n1` [Example 26, (S)-N-hydroxy-3-[4-(2-methylquinolin-4-ylmethoxy)benzenesulfonylamino]-2-[4-(propane-2-sulfonyl)piperazin-1-yl]propionamide], for which the IC50 came out at 16 nM at TACE enzyme [1] (setting [4]), 33 nM at TACE enzyme [1] (setting [3]), 574 nM against MMP3 and 969 nM on MMP1. Also, the “% TACE inhibition at 10 μM” value on TACE enzyme [1] is recorded as 98%.
On to `Cc1ccc(CN2CCN([C@@H](CNS(=O)(=O)c3ccc(OCc4cc(C)nc5ccccc45)cc3)C(=O)NO)CC2)cc1` [Example 21, (S)-N-hydroxy-2-[4-(4-methylbenzyl)piperazin-1-yl]-3-[4-(2-methylquinolin-4-ylmethoxy)benzenesulfonylamino]propionamide], for which the IC50 amounted to 63 nM on TACE enzyme [1] (setting [4]), 63 nM on TACE enzyme [1] (setting [3]), 887 nM on MMP3 and 1170 nM against MMP1. Further, the “% TACE inhibition at 10 μM” value at TACE enzyme [1] stood at 97%.
On to `Cc1cc(COc2ccc(S(=O)(=O)NC[C@@H](C(=O)NO)N3CCN(S(=O)(=O)CC(C)C)CC3)cc2)c2ccccc2n1` [Example 24, (S)-N-hydroxy-2-[4-(2-methylpropane-1-sulfonyl)piperazin-1-yl]-3-[4-(2-methylquinolin-4-ylmethoxy)benzenesulfonylamino]propionamide], for which the IC50 on MMP3 amounted to 1880 nM; against MMP1, 2060 nM.
Consider `Cc1cc(COc2ccc(S(=O)(=O)NC[C@@H](C(=O)NO)N3CCN(Cc4ccc(F)cc4)CC3)cc2)c2ccccc2n1` [Example 18, (S)-2-[4-(4-Fluorobenzyl)piperazin-1-yl]-N-hydroxy-3-[4-(2-methylquinolin-4-ylmethoxy)benzenesulfonylamino]propionamide], for which the IC50 is 67 nM on TACE enzyme [1] (setting [4]); 67 nM on TACE enzyme [1] (setting [3]); over 10000 nM at ADAM10; over 10000 nM at MMP9; 849 nM against MMP3; 670 nM against MMP1. The IC50 against ADAM9 came out at 9250 nM. On TACE enzyme [1], the “% TACE inhibition at 10 μM” value is 90%.
Regarding `Cc1cc(COc2ccc(S(=O)(=O)NC[C@@H](C(=O)NO)N3CCN(Cc4ccccc4)CC3)cc2)c2ccccc2n1` [Example 17, (S)-2-(4-Benzylpiperazin-1-yl)-N-hydroxy-3-[4-(2-methylquinolin-4-ylmethoxy)benzenesulfonylamino]propionamide], at TACE enzyme [1], the “% TACE inhibition at 10 μM” value is reported as 91%. Besides, on TACE enzyme [1] (setting [3]), the IC50 was 62 nM.
Taken in the same sequence, the figures for `CS(=O)(=O)N1CCN([C@@H](CNS(=O)(=O)c2ccc(OCc3ccc(C#N)cc3)cc2)C(=O)NO)CC1` [Example 9, (S)-3-[4-(4-Cyanobenzyloxy)benzenesulfonylamino]-N-hydroxy-2-(4-methanesulfonylpiperazin-1-yl)propionamide] were 100% and 147 nM.
Consider `CS(=O)(=O)N1CCN([C@@H](CNS(=O)(=O)c2ccc(OCc3ccnc4ccccc34)cc2)C(=O)NO)CC1` [Example 16, (S)-N-Hydroxy-2-(4-methanesulfonylpiperazin-1-yl)-3-[4-(quinolin-4-ylmethoxy)benzenesulfonylamino]propionamide], for which, on TACE enzyme [1], the “% TACE inhibition at 10 μM” value was determined as 96%. The IC50 on TACE enzyme [1] (setting [3]) turned out to be 168 nM.
Take `CS(=O)(=O)N1CCN([C@@H](CNS(=O)(=O)c2ccc(OCc3ccnc(-c4ccccc4)c3)cc2)C(=O)NO)CC1` [Example 11, (S)-N-Hydroxy-2-(4-methanesulfonylpiperazin-1-yl)-3-[4-(2-phenylpyridin-4-ylmethoxy)benzenesulfonylamino]propionamide]: the “% TACE inhibition at 10 μM” value on TACE enzyme [1] is 93%. The half-maximal inhibitory concentration (IC50) at TACE enzyme [1] (setting [3]) stood at 24 nM.
Consider `CCN1CCN([C@@H](CNS(=O)(=O)c2ccc(OCc3cc(C)nc4ccccc34)cc2)C(=O)NO)CC1` [Example 19, (S)-2-(4-ethyl-piperazin-1-yl)-N-hydroxy-3-[4-(2-methylquinolin-4-yl-methoxy)benzenesulfonylamino]propionamide], for which the half-maximal inhibitory concentration (IC50) on TACE enzyme [1] (setting [4]) was 41 nM; on TACE enzyme [1] (setting [3]) it was 41 nM; against ADAM10, over 10000 nM; against MMP9, over 10000 nM; on MMP3, 1770 nM; at MMP1, 2300 nM. On ADAM9, the IC50 is 3050 nM. Also, at TACE enzyme [1], the “% TACE inhibition at 10 μM” value amounted to 92%.
As to `Cc1cc(COc2ccc(S(=O)(=O)NC[C@@H](C(=O)NO)N3CCNCC3)cc2)c2ccccc2n1` [Example 13, (S)-N-Hydroxy-3-[4-(2-methylquinolin-4-ylmethoxy)benzenesulfonylamino]-2-piperazin-1-ylpropionamide], the “% TACE inhibition at 10 μM” value at TACE enzyme [1] is reported as 96%. Besides, the IC50 at TACE enzyme [1] (setting [3]) was determined as 108 nM.
On the same counts, the results for `CS(=O)(=O)N1CCN([C@@H](CNS(=O)(=O)c2ccc(OCc3cccc4ccccc34)cc2)C(=O)NO)CC1` [Example 6, (S)-N-Hydroxy-2-(4-methanesulfonylpiperazin-1-yl)-3-[4-(naphthalen-1-ylmethoxy)benzenesulfonylamino]propionamide] are 99% and 52 nM.
On to `Cc1cc(COc2ccc(S(=O)(=O)NC[C@@H](C(=O)NO)N3CCN(S(C)(=O)=O)CC3)cc2)c2ccccc2n1.Cl` [Example 14, (S)-N-Hydroxy-2-(4-methanesulfonylpiperazin-1-yl)-3-[4-(2-methylquinolin-4-ylmethoxy)benzenesulfonylamino]propionamide hydrochloride], for which the “% TACE inhibition at 10 μM” value on TACE enzyme [1] is reported as 98%. Also, at TACE enzyme [1] (read-out: IC50-TACE, enzymatic assay, substrate 40 μM, listed as ex14, hydrochloride), the IC50 was found to be 64 nM.
On to `Cc1cc(COc2ccc(S(=O)(=O)NC[C@@H](C(=O)NO)N3CCN(S(C)(=O)=O)CC3)cc2)c2ccccc2n1` [Example 5, (S)-N-Hydroxy-2-(4-methanesulfonylpiperazin-1-yl)-3-[4-(2-methylquinolin-4-ylmethoxy)benzenesulfonylamino]propionamide], for which the IC50 came out at 21 nM on TACE enzyme [1] (setting [4]), 21 nM at TACE enzyme [1] (setting [3]), 3200 nM against MMP3 and 5100 nM against MMP1. At TACE enzyme [1], the “% TACE inhibition at 10 μM” value was found to be 99%.
With `CC1(C)SCCN(S(=O)(=O)c2ccc(OCC#CCO)cc2)[C@H]1C(=O)NO` [Apratastat, reference compound], the IC50 on TACE enzyme [1] (read-out: IC50 (nM) TACE, TACE column of selectivity table) is 5 nM; at ADAM10 it was 71 nM; at MMP9, 82 nM; against MMP3 it was 10 nM; against MMP1, 145 nM; against ADAM9 it was 85 nM. Besides, at TACE enzyme [2], the “selectivity for the TACE enzyme compared with certain MMPs” value was “not selective”.
On to `Cc1cc(COc2ccc(S(=O)(=O)NC[C@@H](C(=O)NO)N3CCN(C(=O)OCc4ccccc4)CC3)cc2)c2ccccc2n1` [Example 10, Benzyl 4-{(S)-1-hydroxycarbamoyl-2-[4-(2-methylquinolin-4-ylmethoxy)benzenesulfonylamino]ethyl}piperazine-1-carboxylate], for which the “% TACE inhibition at 10 μM” value at TACE enzyme [1] was found to be 93%.
